The text below walks through data of ChEMBL document CHEMBL4152224, “The Identification of Potent, Selective, and Orally Available Inhibitors of Ataxia Telangiectasia Mutated (ATM) Kinase: The Discovery of AZD0156 (8-{6-[3-(Dimethylamino)propoxy]pyridin-3-yl}-3-methyl-1-(tetrahydro-2 H-pyran-4-yl)-1,3-dihydro-2 H-imidazo[4,5- c]quinolin-2-one)” (J Med Chem, 2018).

In brackets after ≈: the same amount, converted by molar mass.

The term hepatocyte CLint denotes a measure of how fast metabolising enzymes remove a compound, apart from limits set by blood flow. By IC50 is commonly meant the concentration that inhibits the measured activity by half. A high value points to a need for much substance. In general, logD refers to lipophilicity at a set pH, counting ionised and neutral species. A lower logD goes with lower lipophilicity. Usually Papp A→B stands for how fast a substance crosses the layer from the apical side. The term pKa denotes the pH at which an ionisable group is half protonated. Lower therefore signals a stronger acid or weaker base. Usually efflux ratio stands for the permeability from basolateral to apical divided by that in the opposite direction, in the common usage. The half-life is the time in which the quantity being followed falls by half. Low readings indicate rapid decline, high ones slow decline. What is called clearance is the volume of plasma or blood freed of the substance per unit of time. A low value points to a low capacity for elimination. The bioavailability is dose-corrected exposure relative to a reference, in per cent. Read a low bioavailability as poor availability.

The nature of data set [1]: Intrinsic clearance in rat hepatocytes assessed per million cells.
Data set [2] is described as follows: Intrinsic clearance in human hepatocytes assessed per million cells.
Data set [3] addresses Serine/threonine-protein kinase ATR (Homo sapiens, UniProt Q13535).
A short description of data set [4]: Buffer/octanol partition coefficient, log D of the compound at pH 7.4 by shake flask method. In kind it is physicochemical.
A short description of data set [5]: Thermodynamic solubility of the compound in 0.1M aqueous phosphate buffer at pH 7.4 after 24 hrs by LC-UV analysis. As to conditions: read-out: Therm_solubility. Type of data set: physicochemical.
The target of data set [6] is Voltage-gated inwardly rectifying potassium channel KCNH2 (Homo sapiens, UniProt Q12809). As to the kind of experiment: Inhibition of human ERG by electrophysiology assay.
Chain of Voltage-gated inwardly rectifying potassium channel KCNH2 (Q12809 whole entry): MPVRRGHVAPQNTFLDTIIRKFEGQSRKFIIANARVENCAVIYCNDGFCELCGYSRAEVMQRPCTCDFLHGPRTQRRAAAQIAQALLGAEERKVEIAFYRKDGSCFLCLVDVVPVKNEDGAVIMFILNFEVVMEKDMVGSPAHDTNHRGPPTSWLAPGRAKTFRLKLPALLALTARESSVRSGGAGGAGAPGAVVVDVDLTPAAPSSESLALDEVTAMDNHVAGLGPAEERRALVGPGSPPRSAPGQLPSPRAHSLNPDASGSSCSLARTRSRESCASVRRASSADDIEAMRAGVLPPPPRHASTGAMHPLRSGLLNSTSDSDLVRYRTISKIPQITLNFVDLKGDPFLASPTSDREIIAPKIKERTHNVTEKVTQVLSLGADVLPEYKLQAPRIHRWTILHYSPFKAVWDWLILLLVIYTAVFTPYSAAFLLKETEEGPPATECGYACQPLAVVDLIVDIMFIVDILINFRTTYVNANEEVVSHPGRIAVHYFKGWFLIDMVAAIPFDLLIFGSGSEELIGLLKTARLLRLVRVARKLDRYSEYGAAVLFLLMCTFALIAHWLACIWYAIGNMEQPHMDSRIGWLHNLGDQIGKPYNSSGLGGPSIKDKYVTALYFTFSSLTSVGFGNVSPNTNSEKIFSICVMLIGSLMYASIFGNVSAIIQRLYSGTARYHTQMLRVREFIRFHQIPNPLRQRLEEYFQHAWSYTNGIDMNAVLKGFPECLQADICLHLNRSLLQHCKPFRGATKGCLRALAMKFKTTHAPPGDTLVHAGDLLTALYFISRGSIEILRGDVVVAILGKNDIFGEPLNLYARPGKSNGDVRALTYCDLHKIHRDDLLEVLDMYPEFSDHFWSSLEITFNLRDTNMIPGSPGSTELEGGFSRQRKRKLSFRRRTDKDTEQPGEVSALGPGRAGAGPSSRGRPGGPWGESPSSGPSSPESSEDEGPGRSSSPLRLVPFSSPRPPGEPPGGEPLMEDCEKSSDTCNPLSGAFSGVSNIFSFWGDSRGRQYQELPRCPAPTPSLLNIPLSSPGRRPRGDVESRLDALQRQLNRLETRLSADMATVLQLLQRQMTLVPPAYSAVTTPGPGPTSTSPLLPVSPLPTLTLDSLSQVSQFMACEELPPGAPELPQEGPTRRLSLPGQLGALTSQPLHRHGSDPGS
Data set [7] in a line: Apparent permeability across apical to basolateral side in MDCK cells overexpressing MDR1. Type of data set: ADME, cell-based, Canis lupus familiaris. As to conditions: dog.
The nature of data set [8]: Dissociation constant, pKa of the compound. Type of data set: physicochemical.
A further data set can be described thus: in vitro. As to conditions: dog, MDCK-MDR1.
For data set [9], the target named is Serine-protein kinase ATM (Homo sapiens, UniProt Q13315).
The nature of data set [10]: Volume of distribution at steady state in rat. Type of data set: ADME, organism-based. As to conditions: in vivo, read-out: Vdss.
A short description of data set [11]: in vivo. As to conditions: dog.
Data set [12] can be described thus: in vivo. Conditions: rat.
Data set [13] is described as follows: Oral bioavailability in rat. Type of data set: ADME, organism-based. Conditions: in vivo.
Data set [14] can be described thus: in vivo. Conditions: rat. This is another data set of the same source.
Data set [15] in a line: Oral bioavailability in dog. In kind it is ADME, organism-based, Canis lupus familiaris. Conditions: in vivo.
A short description of data set [16]: Volume of distribution at steady state in dog. Conditions: in vivo, read-out: Vdss. Type of data set: ADME, organism-based, Canis lupus familiaris.
A short description of data set [17]: in vivo. Conditions: dog. This is another data set of the same source.
Data set [18] can be described thus: Apparent permeability across apical to basolateral side in human Caco2 cells. In kind it is ADME, cell-based. As to conditions: Caco-2.

Chain of Serine/threonine-protein kinase ATR (Q13535 whole entry): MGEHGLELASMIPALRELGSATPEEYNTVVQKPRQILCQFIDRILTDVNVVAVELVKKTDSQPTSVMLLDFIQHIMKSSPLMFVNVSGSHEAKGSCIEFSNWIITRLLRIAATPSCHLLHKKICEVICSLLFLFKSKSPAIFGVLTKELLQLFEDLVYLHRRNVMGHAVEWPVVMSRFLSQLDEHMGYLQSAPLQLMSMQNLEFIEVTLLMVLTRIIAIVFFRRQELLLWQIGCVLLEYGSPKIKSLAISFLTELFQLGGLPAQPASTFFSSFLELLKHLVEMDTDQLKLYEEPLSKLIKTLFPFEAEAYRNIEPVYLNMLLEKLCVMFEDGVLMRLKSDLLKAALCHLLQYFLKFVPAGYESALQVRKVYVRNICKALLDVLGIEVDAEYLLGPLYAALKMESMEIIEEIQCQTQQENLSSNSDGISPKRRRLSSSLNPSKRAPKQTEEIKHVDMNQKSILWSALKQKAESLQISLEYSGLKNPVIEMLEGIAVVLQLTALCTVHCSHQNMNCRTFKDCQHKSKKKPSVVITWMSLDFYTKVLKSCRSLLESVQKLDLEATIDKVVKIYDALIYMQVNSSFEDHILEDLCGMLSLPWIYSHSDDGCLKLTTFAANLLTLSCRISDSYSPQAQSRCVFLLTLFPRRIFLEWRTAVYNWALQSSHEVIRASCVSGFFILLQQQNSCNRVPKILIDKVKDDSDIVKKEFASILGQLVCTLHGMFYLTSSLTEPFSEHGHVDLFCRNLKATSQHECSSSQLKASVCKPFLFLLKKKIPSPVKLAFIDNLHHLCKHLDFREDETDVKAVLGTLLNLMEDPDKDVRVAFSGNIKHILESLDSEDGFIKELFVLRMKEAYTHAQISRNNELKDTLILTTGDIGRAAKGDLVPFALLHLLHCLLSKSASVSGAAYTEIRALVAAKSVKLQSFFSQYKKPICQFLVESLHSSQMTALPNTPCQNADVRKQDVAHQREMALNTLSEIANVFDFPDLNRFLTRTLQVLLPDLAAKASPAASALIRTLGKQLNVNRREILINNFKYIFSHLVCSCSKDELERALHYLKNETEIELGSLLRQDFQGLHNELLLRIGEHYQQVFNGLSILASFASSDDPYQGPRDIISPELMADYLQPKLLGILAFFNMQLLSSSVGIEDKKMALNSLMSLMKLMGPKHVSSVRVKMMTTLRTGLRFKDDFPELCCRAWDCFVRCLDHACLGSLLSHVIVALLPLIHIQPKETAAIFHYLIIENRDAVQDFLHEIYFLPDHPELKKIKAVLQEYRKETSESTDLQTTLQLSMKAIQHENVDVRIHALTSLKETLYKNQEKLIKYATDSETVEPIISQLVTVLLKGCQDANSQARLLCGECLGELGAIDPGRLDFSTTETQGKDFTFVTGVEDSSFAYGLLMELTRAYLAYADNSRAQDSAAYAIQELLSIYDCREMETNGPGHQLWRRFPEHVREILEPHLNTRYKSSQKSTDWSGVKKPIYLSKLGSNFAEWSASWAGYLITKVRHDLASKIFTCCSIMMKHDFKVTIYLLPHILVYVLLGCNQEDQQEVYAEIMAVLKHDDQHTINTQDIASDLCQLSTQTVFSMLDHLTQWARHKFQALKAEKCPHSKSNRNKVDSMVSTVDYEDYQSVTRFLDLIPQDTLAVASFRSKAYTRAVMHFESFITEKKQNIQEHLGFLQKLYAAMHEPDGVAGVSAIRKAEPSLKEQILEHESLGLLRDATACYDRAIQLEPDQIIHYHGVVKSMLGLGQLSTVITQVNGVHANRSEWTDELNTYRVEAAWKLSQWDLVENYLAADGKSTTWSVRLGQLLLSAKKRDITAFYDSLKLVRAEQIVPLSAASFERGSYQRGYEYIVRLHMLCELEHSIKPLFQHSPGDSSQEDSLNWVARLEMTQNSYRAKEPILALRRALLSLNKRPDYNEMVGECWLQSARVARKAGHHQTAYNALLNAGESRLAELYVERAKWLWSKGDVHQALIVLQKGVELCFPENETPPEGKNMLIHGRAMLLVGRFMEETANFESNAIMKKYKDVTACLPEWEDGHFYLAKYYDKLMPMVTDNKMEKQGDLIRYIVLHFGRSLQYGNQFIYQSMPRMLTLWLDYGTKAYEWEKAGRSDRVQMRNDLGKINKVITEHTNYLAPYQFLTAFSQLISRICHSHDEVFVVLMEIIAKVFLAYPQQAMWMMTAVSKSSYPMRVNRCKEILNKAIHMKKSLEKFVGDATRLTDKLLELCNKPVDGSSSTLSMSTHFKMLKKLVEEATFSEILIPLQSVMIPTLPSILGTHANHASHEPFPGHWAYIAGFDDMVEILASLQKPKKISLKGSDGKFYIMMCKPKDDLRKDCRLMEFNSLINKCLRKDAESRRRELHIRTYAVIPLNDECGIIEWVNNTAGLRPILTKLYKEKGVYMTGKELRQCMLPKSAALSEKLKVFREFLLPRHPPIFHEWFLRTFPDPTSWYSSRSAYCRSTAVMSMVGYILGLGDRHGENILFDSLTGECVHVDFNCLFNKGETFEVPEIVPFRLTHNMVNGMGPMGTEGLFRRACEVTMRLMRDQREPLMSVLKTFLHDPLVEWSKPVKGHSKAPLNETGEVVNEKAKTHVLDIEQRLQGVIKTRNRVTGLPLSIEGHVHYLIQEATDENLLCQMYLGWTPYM
Description for in vitro: Efflux ratio of apparent permeability across basolateral to apical over apical to basolateral side in MDCK cells overexpressing MDR1

As for `CO[C@H]1C[C@@H](n2c(=O)n(C)c3cnc4cc(F)c(-c5ccc(OCCN(C)C)nc5)cc4c32)C1`, the figures for the hepatocyte CLint in data set [1] and in data set [2] were 12 µL/min/1e6 cells and 8.3 µL/min/1e6 cells, respectively. Moreover, the IC50 in [3] is over 30 µM; in [6], over 33 µM; in data set [9], 0.023 µM. This molecule displayed a logD in data set [4] of 2. For the same molecule, the solubility thermodynamic at 24 h in [5] was over 1000 µM. Also, the Papp A→B in data set [7] was 16 ×10⁻⁶ cm/s. For the same molecule, the pKa in data set [8] was determined as 8.5. The efflux ratio in the data set “in vitro” stood at 1.6.
In the case of `CO[C@H]1C[C@@H](n2c(=O)n(C)c3cnc4ccc(-c5ccc(OCCCN(C)C)nc5)cc4c32)C1`, the hepatocyte CLint was determined as 5.1 µL/min/1e6 cells in [1] and 8.7 µL/min/1e6 cells in data set [2]. Besides, the IC50 in [3] was over 30 µM; in data set [6], over 33 µM. Also, the results for the Vd in data set [10] and in data set [16] were 5.7 L/kg and 11 L/kg, respectively. The molecule also had a logD in [4] of 1.6. Moreover, the half-life in “in vivo [11]” and in the data set “in vivo [14]” was 5 h throughout. Moreover, the figures for the clearance in the data set “in vivo [12]” and in the data set “in vivo [17]” were 19.5 mL/min/kg and 27.6 mL/min/kg, respectively. For the same molecule, the solubility thermodynamic at 24 h in data set [5] stood at 540 µM (≈ 249 µg/mL). Moreover, the bioavailability was 50% in data set [13] and 65% in data set [15]. Further, in data set [7], the Papp A→B worked out at 7.8 ×10⁻⁶ cm/s. Also, in data set [8], the pKa was determined as 9.5. Besides, the efflux ratio in “in vitro” was 3.
For the molecule `CO[C@H]1C[C@@H](n2c(=O)n(C)c3cnc4cc(F)c(-c5ccc(OCCCN(C)C)nc5)cc4c32)C1`, the hepatocyte CLint in data set [1] amounted to 6.6 µL/min/1e6 cells; in data set [2] it was 7.9 µL/min/1e6 cells. In addition, the logD in data set [4] came to 1.8. The solubility thermodynamic at 24 h in data set [5] is over 980 µM. In data set [6], this molecule gave an IC50 of over 33 µM. In addition, the Papp A→B in data set [7] stood at 6.8 ×10⁻⁶ cm/s. In data set [8], this molecule yielded a pKa of 9.3. Moreover, in “in vitro”, the efflux ratio was 6.2.
As for `Cn1c(=O)n(C2CCOCC2)c2c3cc(-c4cccnc4)ccc3ncc21`, the intrinsic clearance (hepatocyte CLint) in data set [1] is 9.4 µL/min/1e6 cells; in data set [2], under 4.9 µL/min/1e6 cells. This molecule yielded a logD in data set [4] of 2.2. For the same molecule, the Papp A→B in [18] worked out at 60 ×10⁻⁶ cm/s; in data set [7] it was 30 ×10⁻⁶ cm/s. Moreover, the solubility thermodynamic at 24 h in data set [5] stood at 17 µM (≈ 6.13 µg/mL). Besides, inhibition in data set [6] was half-maximal at 11 µM (IC50).
With `CO[C@H]1C[C@@H](n2c(=O)n(C)c3cnc4cc(F)c(-c5ccc(NC(=O)CCCN(C)C)nc5)cc4c32)C1`, the values for the hepatocyte CLint in data set [1] and in [2] were 7 µL/min/1e6 cells and 6.5 µL/min/1e6 cells, respectively. For the same molecule, the half-inhibitory concentration (IC50) in [3] is over 30 µM; in data set [6] it was 18 µM; in data set [9], 0.0082 µM. The molecule further returned a logD in data set [4] of 1.1. In data set [5], the solubility thermodynamic at 24 h came out at 870 µM (≈ 441 µg/mL). Further, the apparent permeability from apical to basolateral (Papp A→B) in [7] was 0.4 ×10⁻⁶ cm/s. Moreover, the efflux ratio in the data set “in vitro” turned out to be 77.
With `NC(=O)c1cnc2ccc(-c3cccnc3)cc2c1NC1CCOCC1`, the hepatocyte CLint in [2] was under 4 µL/min/1e6 cells. Besides, the Papp A→B in data set [18] is 15 ×10⁻⁶ cm/s; in data set [7] it was 4.8 ×10⁻⁶ cm/s. Also, the solubility thermodynamic at 24 h in [5] is over 610 µM.
Take `CO[C@H]1C[C@@H](n2c(=O)n(C)c3cnc4cc(F)c(-c5ccc(C(=O)NCCN(C)C)nc5)cc4c32)C1`: the hepatocyte CLint turned out to be 2.9 µL/min/1e6 cells in data set [1] and 4 µL/min/1e6 cells in data set [2]. The IC50 in data set [3] was over 30 µM; in [6] it was over 33 µM; in [9], 0.13 µM. For the same molecule, the logD in [4] came out at 1.5. Besides, the solubility thermodynamic at 24 h in [5] turned out to be 980 µM (≈ 483 µg/mL). Further, the Papp A→B in data set [7] was 2.5 ×10⁻⁶ cm/s. Moreover, the efflux ratio in “in vitro” turned out to be 11.
As for `COCc1ccc(-c2cc3c(cc2F)ncc2c3n([C@H]3CC[C@H](OC)CC3)c(=O)n2C)cn1`, the hepatocyte CLint in data set [1] and in data set [2] was 10 µL/min/1e6 cells each time. The IC50 in data set [3] is over 26 µM; in data set [6] it was 27 µM; in data set [9] it was 0.24 µM. The pH-dependent lipophilicity (logD) in data set [4] was determined as 3.2. Besides, the solubility thermodynamic at 24 h in data set [5] stood at 84 µM (≈ 37.8 µg/mL). In addition, the Papp A→B in data set [7] is 20 ×10⁻⁶ cm/s. Moreover, the efflux ratio in the data set “in vitro” was 0.6.
With `COCc1ccc(-c2cc3c(cc2F)ncc2c3n([C@H]3C[C@@H](OC)C3)c(=O)n2C)cn1`, the hepatocyte CLint was found to be 4.5 µL/min/1e6 cells in data set [1] and 8.8 µL/min/1e6 cells in data set [2]. The IC50 in [3] was over 30 µM; in data set [6], 9 µM; in data set [9], 0.1 µM. The Vd in data set [10] was determined as 0.98 L/kg. In addition, the log distribution coefficient (logD) in [4] was 2.7. In “in vivo [12]”, this molecule returned a clearance of 22.5 mL/min/kg. Moreover, in data set [5], the solubility thermodynamic at 24 h worked out at 37 µM (≈ 15.6 µg/mL). This molecule displayed a bioavailability in data set [13] of over 100%. Further, in data set [7], the apparent permeability from apical to basolateral (Papp A→B) amounted to 38 ×10⁻⁶ cm/s. For the same molecule, the half-life in the data set “in vivo [14]” is 2.7 h. For the same molecule, in the data set “in vitro”, the efflux ratio came to 0.4.
`CO[C@H]1C[C@@H](n2c(=O)n(C)c3cnc4ccc(-c5ccc(OCCCN6CCCC6)nc5)cc4c32)C1`: the hepatocyte CLint in [1] was under 1.3 µL/min/1e6 cells; in data set [2], 5.3 µL/min/1e6 cells. Also, the results for the IC50 in [3], in data set [6] and in data set [9] were over 24 µM, over 33 µM and 0.00017 µM, respectively. Also, the log distribution coefficient (logD) in [4] came out at 1.8. Besides, the solubility thermodynamic at 24 h in data set [5] is over 1100 µM. Besides, in [7], the Papp A→B stood at 2.5 ×10⁻⁶ cm/s. In addition, the efflux ratio in the data set “in vitro” was 9.4.
The molecule `CO[C@H]1C[C@@H](n2c(=O)n(C)c3cnc4ccc(-c5ccc(OCCCN6CCC(O)CC6)nc5)cc4c32)C1` registered a hepatocyte CLint in data set [1] of under 1 µL/min/1e6 cells. Also, the concentration for half-maximal inhibition (IC50) is over 30 µM in data set [3] and 27 µM in [9]. In addition, in [4], the logD is 0.6. Besides, the solubility thermodynamic at 24 h in data set [5] was found to be 750 µM (≈ 388 µg/mL). In addition, the pKa in data set [8] amounted to 8.4.
As for `COCc1ccc(-c2cc3c(cc2F)ncc2c3n([C@@H](C)C3CCOCC3)c(=O)n2C)cn1`, the values for the hepatocyte CLint in [1] and in data set [2] were 1.6 µL/min/1e6 cells and 22 µL/min/1e6 cells, respectively. The half-maximal inhibitory concentration (IC50) in data set [3] was over 30 µM; in data set [6], 15 µM; in data set [9], 0.49 µM. Further, the logD in data set [4] was 2.7. For the same molecule, the solubility thermodynamic at 24 h in [5] is over 1000 µM. In data set [7], the Papp A→B worked out at 27 ×10⁻⁶ cm/s. Moreover, in the data set “in vitro”, the efflux ratio was found to be 0.8.
In [1], `CO[C@H]1C[C@@H](n2c(=O)n(C)c3cnc4ccc(-c5ccc(OCCCN6CCOCC6)nc5)cc4c32)C1` came in with a hepatocyte CLint of 28 µL/min/1e6 cells. Also, the values for the IC50 in data set [3] and in data set [9] were over 30 µM and over 28 µM, respectively. In data set [4], this molecule displayed a logD of 1.4. The solubility thermodynamic at 24 h in data set [5] is 980 µM (≈ 494 µg/mL). Further, the pKa in data set [8] worked out at 6.7.
For `CNCCCOc1ccc(-c2ccc3ncc4c(c3c2)n([C@H]2C[C@@H](OC)C2)c(=O)n4C)cn1`, the figures for the hepatocyte CLint in data set [1] and in data set [2] were 4.8 µL/min/1e6 cells and 4.4 µL/min/1e6 cells, respectively. In [4], the logD was 0.4. Also, the solubility thermodynamic at 24 h in [5] turned out to be 930 µM (≈ 416 µg/mL). In data set [6], this molecule displayed a half-inhibitory concentration (IC50) of over 33 µM. Further, in data set [7], the apparent permeability from apical to basolateral (Papp A→B) was 0.65 ×10⁻⁶ cm/s. The pKa in data set [8] stood at 10.3. In addition, the efflux ratio in “in vitro” is 41.
